Molecules are shown by their SMILES.

This data set in a line: Solubility of the active in lipophilic vehicles at 25° C., HPLC method. Conditions: oil or lipid. As to the method: In this example, lipophilic vehicles with different solubilizing powers for dextromethorphan HBr were tested.

The solubility is the concentration that dissolves in the medium under given conditions. As to `COc1ccc2c(c1)[C@]13CCCC[C@@H]1[C@H](C2)N(C)CC3` [dextromethorphan HBr], the solubility by setting is: (in Dimethicone 100 silicone oil) less than 1 µg/mL; (in medium chain triglycerides Mygliol 812N) 120 µg/mL; (in paraffin oil) roughly 1 µg/mL; (in soya oil) roughly 6 µg/mL.
